# Results taken from patent EP1505064A1, “2-Aminopyrimidine derivatives” (Bayer HealthCare AG, priority 2003, dated 2005).
# pIC50: −log10 of the molar value. Structures can show the parent of a compound that is named as a salt.
# Target: human H4 (Homo sapiens, UniProt Q9H3N8)
# Experiment: Calcium mobilization in CHO cells transfected with human H4 (Assay 1)
# Type: cell-based
# Settings: calcium mobilization induced by 100 nM histamine in CHO-H4 cells; compounds at purity of about 40 to 90%; read-out: Activity Class
# Procedure: [Calcium Mobilization in CHO cells transfected with human H4] (Assay1)
# A fusion construct consisting of the n-terminal part of H4 and the C-terminal part of the G protein Gα 6 was transfected into CHO cells containing the aequorin-controlled luciferase gene (CHOAQLuci cells). Recombinant clones showing aequorin luminescence after the addition of 1 µM histamine were isolated. Starting with three independent primary cell clones three sets of tertiary clones were generated by two successive rounds of limiting dilution. Analysis of the primary clones as well as each subcloning by limiting dilution was monitored by "clone-pool analysis" comparing H4-transfected to mock-transfected (expression vector without H4 receptor cDNA) clones.
# CHO-H4 cells were seeded at 2 x 10^4 cells per well in Biocoat poly-D-Lysine 96 well black/clear plates (BECTON DICKINSON, Franklin Lakes, US) in D-MEM/F12 medium supplemented with 10% FCS and 400 µg/ml Geneticin (Invitrogen GIBCO, Carlsbad, US) and 2 mM butylrate for O/N. The medium was removed and cells were loaded with 1 µM Fluo-3 (Molecular Probes, Eugene, USA) in loading solution (0.1% BSA, 20mM HEPES Hank's Buffer, 1mM probinecid) for 1 h. The loading buffer was removed and exchanged for fresh loading buffer. Cells were pretreated with various concentrations of test compounds and subjected to calcium mobilization measurement induced by 100 nM histamine by using FDSS6000.
# Assay results in Assay 1 are shown in Examples and tables of the Examples below. The data corresponds to the compounds as yielded by solid phase synthesis and thus to levels of purity of about 40 to 90%. For practical reasons, the compounds are grouped in four classes of activity as follows: A IC50 20nM < B IC50 100nM C < IC50 500nM D
# Sequence of human H4 (Q9H3N8 whole entry): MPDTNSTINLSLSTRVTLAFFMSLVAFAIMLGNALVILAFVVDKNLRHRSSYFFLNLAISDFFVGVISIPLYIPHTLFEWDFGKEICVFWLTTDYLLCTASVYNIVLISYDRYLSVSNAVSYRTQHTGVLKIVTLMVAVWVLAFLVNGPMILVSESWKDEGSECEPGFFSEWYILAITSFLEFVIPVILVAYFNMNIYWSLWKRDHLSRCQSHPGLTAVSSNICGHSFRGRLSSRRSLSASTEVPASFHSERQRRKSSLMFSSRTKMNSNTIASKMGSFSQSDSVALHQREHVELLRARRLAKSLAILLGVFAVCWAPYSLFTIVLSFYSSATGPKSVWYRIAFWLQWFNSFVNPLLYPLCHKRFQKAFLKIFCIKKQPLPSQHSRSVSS
row,SMILES,pIC50
1,"CNC1CCN(c2cc(-c3ccccc3)nc(N)n2)C1 (stereo not drawn) [Example 1, 4-[3-(Methylamino)pyrrolidin-1-yl]-6-phenylpyrimidin-2-amine trihydrochloride]",> 7.70
2,"CNC1CCN(c2cc(-c3cccc(C#N)c3)nc(N)n2)C1 (stereo not drawn) [Example 2, 3-{2-Amino-6-[3-(methylamino)pyrrolidin-1-yl]pyrimidin-4-yl}benzonitrile trihydrochloride]",7.00 to 7.70
3,"Nc1nc(-c2ccccc2)cc(N2CCC(N)C2)n1 (stereo not drawn) [Example 3, 4-(3-aminopyrrolidin-1-yl)-6-phenylpyrimidin-2-amine trihydrochloride]",7.00 to 7.70
4,"CN[C@@H]1CCN(c2cc(-c3cccc([N+](=O)[O-])c3)nc(N)n2)C1 [Example 6, 4-[(3R)-3-(methylamino)pyrrolidin-1-yl]-6-(3-nitrophenyl)pyrimidin-2-amine trihydrochloride]",> 7.70
5,"CN[C@H]1CCN(c2cc(-c3cccc([N+](=O)[O-])c3)nc(N)n2)C1 [Example 7, 4-[(3 S)-3-(methylamino)pyrrolidin-1-yl]-6-(3-nitrophenyl)pyrimidin-2-amine trihydrochloride]",6.30 to 7.00
6,"CN[C@H]1CCN(c2cc(-c3ccccc3)nc(N)n2)C1 [Example 8, 4-[(3S)-3-(methylamino)pyrrolidin-1-yl]-6-phenylpyrimidin-2-amine trihydrochloride]",7.00 to 7.70
